Data on one compound can be found in patent US10105401B2, “Composition comprising bioactive amino acids and/or peptides and marine oil in a stable oil-in-water emulsion, and the use of said composition as a functional or therapeutic composition” (SMARTFISH AS, priority 2009, dated 2018).

Molecules are shown by their SMILES.

The conditions of data set [1]: when supplemented as part of Smartfish; skeletal muscle, heart, brain.
Protocol: The tissues were finally analyzed for the content of carnosine, both labeled and non-labeled.
This amount equals 200 mg/kg per day. After one week, the following organs were dissected out; gastrocnemius, heart and brain and immediately frozen in liquid nitrogen, and stored at −80° C.
Carnosine (Sigma-Aldrich) and 15N13C2-labeled carnosine (Sigma-Aldrich) concentrations in tissue were determined by HPLC-MS/MS operated in MRM mode.
Mouse tissues were homogenized in Methanolic HCL using a pellet grinder with cordless motor (Kontes). The homogenate was incubated for 30 min at 50° C. This procedure homogenized the tissue, precipitated proteins and methylated the carboxcylic acid group.
After centrifugation, the supernatant were injected directly into the LC-MS/MS system. Calibrators were prepared by methylation of non labeled carnosine in methanolic HCl. The HPLC column used was a Zorbax XDB 150×4.6 mm ID with 5 μm particles. A gradient elution starting with 10% MeOH in water and 4 g/l ammonium acetate 40% MeOH for 3 minutes changing linearly to 100% methanol over 3.5 minutes was used to separate carnosine from other constituents.
For data set [2] the following is noted: cited from earlier work.

As for `NCCC(=O)O` [β-alanine], the “bioavailability and tissue uptake of β-alanine” value in data set [1] is “bioavailable and taken up by all the three target tissues”. The “reduction of muscle carnosine levels per week in washout” value in data set [2] (human volunteers, nine week washout after six weeks of β-alanine) is recorded as 2.5-3.5 % reduction/week. Also, in data set [2] (humans, six week period, 4.8 g β-alanine per day), the “average increase in muscle carnosine” value is on record as 27%.
